{
  "source": "ChEMBL document CHEMBL1201862",
  "about": "“PubChem BioAssay data set” (2004)",
  "assay_in_all_cases": "NCI-60 cell line screen, 48 h",
  "key": {"SK-MEL-28": {"test_system": "SK-MEL-28"}, "OVCAR-4": {"test_system": "OVCAR-4"}, "MCF7": {"test_system": "MCF7"}, "HCT-15": {"test_system": "HCT-15"}, "HOP-62": {"test_system": "HOP-62"}, "HOP-92": {"test_system": "HOP-92"}, "IGROV-1": {"test_system": "IGROV-1"}, "SW-620": {"test_system": "SW-620"}, "HT-29": {"test_system": "HT-29"}, "U-251": {"test_system": "U-251"}, "CCRF-CEM": {"test_system": "CCRF-CEM"}, "UACC-257": {"test_system": "UACC-257"}, "K562": {"test_system": "K562"}, "HCT-116": {"test_system": "HCT-116"}, "SF-539": {"test_system": "SF-539"}, "UACC-62": {"test_system": "UACC-62"}, "MDA-MB-435": {"test_system": "MDA-MB-435"}, "SK-OV-3": {"test_system": "SK-OV-3"}, "KM12": {"test_system": "KM12"}, "M14": {"test_system": "M14"}},
  "note": "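The compound was tested at five concentrations on cells cultured in 96-well plates, with a 48-hour exposure period. GI50: concentration for 50% inhibition of growth.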 The source made the active and inactive calls. Rule as the data show it: active = GI50 up to about 1.1 µM and inactive = higher.",
  "data": [
    {"smiles": "CN1C(=O)C2C=C3CCCCC3=CC2N(C)C1=O", "note": "(stereo not given)", "values": [
      {"measurement": "GI50", "setting": "SK-MEL-28", "result": "> 100 µM (inactive)"},
      {"measurement": "GI50", "setting": "OVCAR-4", "result": "> 100 µM (inactive)"},
      {"measurement": "GI50", "setting": "MCF7", "result": "> 100 µM (inactive)"},
      {"measurement": "GI50", "setting": "HCT-15", "result": "> 100", "unit": "µM"},
      {"measurement": "GI50", "setting": "HOP-62", "result": "> 100 µM (inactive)"},
      {"measurement": "GI50", "setting": "HOP-92", "result": "99.1 µM (inactive)"},
      {"measurement": "GI50", "setting": "IGROV-1", "result": "> 100 µM (inactive)"},
      {"measurement": "GI50", "setting": "SW-620", "result": "> 100 µM (inactive)"},
      {"measurement": "GI50", "setting": "HT-29", "result": "> 100 µM (inactive)"},
      {"measurement": "GI50", "setting": "U-251", "result": "> 100 µM (inactive)"},
      {"measurement": "GI50", "setting": "CCRF-CEM", "result": "> 100 µM (inactive)"},
      {"measurement": "GI50", "setting": "UACC-257", "result": "> 100 µM (inactive)"},
      {"measurement": "GI50", "setting": "K562", "result": "> 100 µM (inactive)"},
      {"measurement": "GI50", "setting": "HCT-116", "result": "> 100 µM (inactive)"},
      {"measurement": "GI50", "setting": "SF-539", "result": "> 100 µM (inactive)"},
      {"measurement": "GI50", "setting": "UACC-62", "result": "> 100 µM (inactive)"},
      {"measurement": "GI50", "setting": "MDA-MB-435", "result": "> 100 µM (inactive)"},
      {"measurement": "GI50", "setting": "SK-OV-3", "result": "> 100 µM (inactive)"},
      {"measurement": "GI50", "setting": "KM12", "result": "> 100 µM (inactive)"},
      {"measurement": "GI50", "setting": "M14", "result": "> 100 µM (inactive)"}
    ]}
  ]
}
